Reference: the supplement of paper PMC4862054

Key:
Test in all cases: normalised response (% of control), CellTiter-Glo; higher = more viable cells (100 = DMSO, 0 = benzethonium chloride kill control)
Conditions in all cases: incubation time: 72 h
[1] = test system: BT-474
Procedure, shortened: (§1)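 Plates were normalised with 0.1 % DMSO as 100 and a positive kill control as 0. Breast cancer cell lines in 20 µl suspension had been seeded into 384-well plates with compound at 5 concentrations in 10-fold steps over a compound-specific 10,000-fold range, incubated 72 h, and read for CellTox Green fluorescence (485/520 nm) followed by CellTiter-Glo luminescence. Each value is the normalised signal at a single concentration.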

[2] = test system: CAL-148
Procedure, shortened: as §1

[3] = test system: MDA-MB-453
Procedure, shortened: as §1

[4] = test system: MDA-MB-436
Procedure, shortened: as §1

[5] = test system: CAL-51
Procedure, shortened: as §1

[6] = test system: BT-549
Procedure, shortened: as §1

[7] = test system: HCC1937
Procedure, shortened: as §1

[8] = test system: MDA-MB-468
Procedure, shortened: as §1

[9] = test system: CAL-85-1
Procedure, shortened: as §1

[10] = test system: MFM-223
Procedure, shortened: as §1

[11] = test system: CAL-120
Procedure, shortened: as §1

[12] = test system: MDA-MB-231
Procedure, shortened: as §1

[13] = test system: DU-4475
Procedure, shortened: as §1

[14] = test system: MCF-10A
Procedure, shortened: as §1

[15] = test system: HCC1143
Procedure, shortened: as §1

[16] = test system: Hs578T
Procedure, shortened: as §1

[17] = test system: SK-BR-3
Procedure, shortened: as §1

[18] = test system: HDQ-P1
Procedure, shortened: as §1

SMILES	normalised response [1]	normalised response [2]	normalised response [3]	normalised response [4]	normalised response [5]	normalised response [6]	normalised response [7]	normalised response [8]	normalised response [9]	normalised response [10]	normalised response [11]	normalised response [12]	normalised response [13]	normalised response [14]	normalised response [15]	normalised response [16]	normalised response [17]	normalised response [18]
CNC(=O)c1ccccc1Sc1ccc2c(/C=C/c3ccccn3)n[nH]c2c1 [Axitinib] (1000 nM)	102%	103%	87.9%	97.8%	59.4%	103%	88.6%	83.9%	117%	59.8%	95.3%	111%	102%	95%	94.6%	93.8%	90.5%	96.8%
CC(C)C[C@H](NC(=O)[C@@H](COC(C)(C)C)NC(=O)[C@H](Cc1ccc(O)cc1)NC(=O)[C@H](CO)NC(=O)[C@H](Cc1c[nH]c2ccccc12)NC(=O)[C@H](Cc1cnc[nH]1)NC(=O)[C@@H]1CCC(=O)N1)C(=O)N[C@@H](CCCNC(=N)N)C(=O)N1CCC[C@H]1C(=O)NNC(N)=O [Goserelin] (1000 nM)	101%	93.1%	106%	93.8%	100%	98.6%	98.2%	94.3%	98.2%	99.6%	106%	100%	96.3%	96.5%	92.3%	99.4%	94.3%	101%
Nc1ccn([C@@H]2O[C@H](CO)[C@@H](O)C2(F)F)c(=O)n1 [Gemcitabine] (100 nM)	81.8%	56%	67.7%	32.6%	24.4%	49.7%	79.2%	28.4%	43.1%	101%	78.8%	85%	74.5%	66.7%	44.1%	70%	41.5%	86%
CCNC(=O)CCC/C=C\C[C@@H]1[C@@H](/C=C/[C@@H](O)CCc2ccccc2)[C@H](O)C[C@@H]1O [Bimatoprost] (550 nM)	96.7%	93.6%	93.2%	108%	102%	104%	94.5%	95.2%	96.3%	90.3%	97.1%	97.1%	98.3%	102%	92.5%	93%	88.7%	95.4%
COc1cc(Nc2c(C#N)cnc3cc(OCCCN4CCN(C)CC4)c(OC)cc23)c(Cl)cc1Cl [Bosutinib] (1000 nM)	90.7%	101%	94.9%	87.8%	77.2%	95.2%	78.8%	81%	72.2%	84%	83.8%	81.6%	99.8%	34.5%	84.7%	102%	97.1%	51.2%
Cn1cc(C2=C(c3cn(C4CCN(Cc5ccccn5)CC4)c4ccccc34)C(=O)NC2=O)c2ccccc21 [Enzastaurin] (1000 nM)	93.1%	104%	96.1%	109%	74.7%	95.8%	98.4%	96.3%	109%	97.5%	103%	100%	106%	91.6%	92.4%	104%	97.7%	91.2%
CCNC(=O)c1noc(-c2cc(C(C)C)c(O)cc2O)c1-c1ccc(CN2CCOCC2)cc1 [NVP-AUY922] (100 nM)	25%	27.6%	32.3%	44.6%	14.8%	41.1%	28.7%	28.7%	20.5%	43.4%	47.5%	24.6%	0.04%	15.2%	36.8%	39.1%	35.8%	23.5%
CC1(C)CCC(c2ccc(Cl)cc2)=C(CN2CCN(c3ccc(C(=O)NS(=O)(=O)c4ccc(N[C@H](CCN5CCOCC5)CSc5ccccc5)c(S(=O)(=O)C(F)(F)F)c4)cc3)CC2)C1 [Navitoclax] (1000 nM)	58.1%	78.5%	80.9%	95.3%	90.8%	92.5%	83.4%	82.8%	90%	85.8%	67.8%	49.2%	85.9%	97.8%	82.9%	93.1%	85.5%	73%
CO[C@@H]1[C@H](N(C)C(=O)c2ccccc2)C[C@H]2O[C@]1(C)n1c3ccccc3c3c4c(c5c6ccccc6n2c5c31)C(=O)NC4 [Midostaurin] (1000 nM)	52.1%	80.5%	120%	77.5%	20.8%	32.6%	63.7%	26.9%	85.8%	75.8%	54%	50.3%	51.5%	27.8%	55.9%	26.1%	61.4%	65.1%
Cc1cc(Nc2nc(N[C@@H](C)c3ncc(F)cn3)ncc2Cl)[nH]n1 [AZD1480] (100 nM)	99.7%	87.5%	94.1%	103%	117%	105%	101%	104%	100%	71.9%	97.3%	97.8%	92.1%	93.4%	107%	101%	91.8%	102%
